US20230302159A1, “COMPOUNDS AND COMPOSITIONS FOR TUMOR DETECTION AND SURGICAL GUIDANCE” (Cornell University, priority 2020, published 2023)
“And” between values parts separate entries of the source, which are not always exact repeats. Identical values can stand only once.

Assays:
OVASAHO cells = assay: In vitro fluorescence microscopy and intracellular localization; type: cell-based; conditions: 2 μM, 1 hr; for Pearson value, overlap with the mitochondria tracker: co-staining with mitochondria tracker; for cellular fluorescence image in the presence of dye-containing medium (no washing): without washing
Method: Evaluation of CypH-11 in cancer cells. An ovarian cancer cell line, OVASAHO, was used to evaluate the performance of CypH-11, CypH-1, and Cy7. OVASAHO cells were incubated with the respective probe (2 μM) for 1 hr, and the cellular fluorescence images were captured in the presence of the dye-containing medium (FIG. 13A). […] This distinct difference is because of the pH sensitivity of CypH-11 and CypH-1. Both of them have low fluorescence in the cell culture medium (pH=7.4), but their fluorescence is turned on upon entering the cellular acidic compartments. […] After washing with a fresh culture medium, the cell images were captured again (FIG. 19). […] The intracellular distribution of dyes was investigated by co-staining with mitochondrial, lysosomal and nuclear trackers (FIG. 13B).
In vitro fluorescence microscopy. OVASAHO cells were used to compare the cellular performance and cellular distribution of CypH-11, CypH-1, and Cy7. OVASAHO cells (1.0×10^4) were seeded on a 96-well black plate (Corning, NY) and incubated in the supplemented medium for 24 hrs. Compounds (2 μM) were added and the cells were incubated for 1 hr. Before PBS washing, the cellular fluorescence images were captured with a fluorescence microscope (Cy7 filter, excitation: 690-730 nm and emission: 770-850 nm). After PBS washing (3×), the cellular images were captured again. For the co-localization experiment, OVASAHO cells (5.0×10^3) were incubated on a 96 well plate (ibiTreat, 180 μm coverslip, ibidi) with a clear and flat bottom. After treatment with CypH-11 (2 μM) or CypH-1 (2 μM) for 1 hr, the cells were washed with medium (3×). The cells were stained with Mitoview Green (Biotium, Parkway Fremont, CA) for 15 min or Lysoview 488 (Biotium) for 30 min. After washing with medium (3×), cells were further stained with DAPI (Invitrogen) for 10 min. The fluorescence images were captured using a fluorescence microscope (EVOS) after replacing the medium with a fresh cell culture medium. CypH-11 and CypH-1 images were obtained with a Cy7 filter, DAPI images with a DAPI filter (excitation: 352-402 nm and emission: 417-477 nm), Mitoview Green and Lysoview 488 images with a GFP filter (excitation: 457-487 nm and emission: 502-538 nm).

[1] = Relative quantum yield measurement against ICG standard; type: physicochemical; conditions: at pH 4.0, PBS
Method: Spectroscopic analysis. Stock solutions (1 mM in DMSO) of CypH-11, CypH-1, and Cy7 were stored at a −30° C. freezer and used for the following experiments. For the pKa measurement, the respective compound was diluted in 20 mM phosphate-buffered solution (PBS, pH 2.0-11.0) to a final concentration of 2 μM. The fluorescence intensity (λex=725 nm and λcm=785 nm) was measured on a plate reader (Tecan Infinite M1000 Pro), and the fluorescence images were recorded with a fluorescence imaging system (Bruker In-vivo F Pro). For the quantum yield measurement, indocyanine green (ICG, Φ=1.2% in water) was used as the standard compound. The respective compound (0.4, 0.8, 1.2, 1.6, and 2.0 μM) in PBS solutions (pH=4.0 and pH=7.4) was measured using a Cary 60 UV-Vis spectrophotometer and Cary Eclipse fluorescence spectrophotometer (Agilent). The slope of fluorescence vs absorbance was compared with that of ICG to calculate the relative quantum yield.

[2] = system: SKOV3/GFP-Luc disseminated peritoneal tumors; assay: In vivo fluorescence imaging of disseminated peritoneal tumors after IP administration; set-up: species or system mice
Method: Tumor models of subcutaneous implants and peritoneal implants. All animal procedures were carried out in compliance with the approved animal protocols and guidelines of the Institutional Animal Care and Use Committee at Weil Cornell Medical College. Mice (female, SCID Hairless Outbred Mouse) were purchased from Charles River (Wilmington, MA). To establish the subcutaneous implants, a suspension of OVASAHO/RFP-Luc cells (5.0×10^6) or SKOV3/GFP-Luc cells (5.0×10^6) in 100 μL PBS was inoculated into each flank of the female nude mice on both sides. After two weeks, the tumor implants grew to around 5 mm in size and were used for the spray experiment. To establish the peritoneal implants, SKOV3/GFP-Luc cells (5.0×10^6) suspended in […] were injected into the abdominal cavities of the female nude mice. After two weeks, the tumor growth was examined with an in vivo bioluminescence imaging system followed by peritoneal injection of D-luciferin potassium solution (200 μL, 15 mg/mL) for 10 min. Generally, mice bearing multiple disseminated peritoneal implants of 5 mm size in diameter were used for the experiment.
In vivo fluorescence imaging of disseminated peritoneal tumors. […] The fluorescence images were captured for the whole cavity under both the GFP and Cy7 channels. […] Regions of interest (ROI, n=6, and average area=0.28±0.1 cm^2) within the tumor nodules and in the adjacent normal areas in the peritoneal cavity were drawn and calculated for tumor-to-normal tissue ratio.
Histology. To gain knowledge about the CypH-11 distribution in tumors after administration via spray and i.p. injection, the tumors were excised and analyzed. […] The slides were imaged first with a fluorescence microscope (EVOS, Thermofisher Scientific, Waltham, MA) and were subsequently stained with hematoxylin and eosin Y solution (H&E) to assess their histologic alterations under a light microscope.

SMILES	cellular fluorescence after washing (OVASAHO cells)	Pearson value, overlap with the mitochondria tracker (OVASAHO cells)	cellular fluorescence image in the presence of dye-containing medium (no washing) (OVASAHO cells)	quantum yield (Φ) [1] [%]	tumor signal higher than the background of the peritoneum, liver, and intestine ([2]; 1 h post IP, 200 μL 2 μM in PBS)	size of smallest tumors detected ([2]; 1 h post IP, no washing)	NIR signal depth in tumor after IP injection ([2]; IP, within an hour, histology)
CN(C)c1ccc(OC2=C(/C=C/C3=[N+](C)c4ccccc4C3(C)C)CCC/C2=C\C=C2\N(C)c3ccccc3C2(C)C)cc1.[Cl-] [CypH-1, reference compound]	high fluorescence	0.90	Strong intracellular fluorescence and low medium fluorescence				
CC(C)N(C)c1ccc(OC2=C(/C=C/C3=[N+](C(C)C)c4ccccc4C3(C)C)CCC/C2=C\C=C2\N(C(C)C)c3ccccc3C2(C)C)cc1.[I-] [CypH-11]	high fluorescence	0.70	Strong intracellular fluorescence and low medium fluorescence	3.3	3- to 4 fold	1 mm and < 1 mm	6-7 layers of cells
